# Laboratory results: article PMC9860859, “Design, Development, and Optimisation of Smart Linker Chemistry for Targeted Colonic Delivery—In Vitro Evaluation” (Pharmaceutics, 2023)
# Values joined by “and” are separate entries in the source; they are usually repeats but may differ in a detail not shown here. Identical values can stand only once. “Also recorded” adds a separate entry of the source.
# Tests used:
# [1] = cited from earlier work
# [2] = In vitro release assay of probes 13–17 by HPLC in buffers simulating the GIT
# Procedure: (§1) Test solutions for probes 13–17 were prepared at 25 µM in a 1:1 mixture of ethanol and the respective buffer. Samples were incubated at 37 °C, then analysed by HPLC using an Agilent 1260 Infinity system, with conditions as follows: Agilent ZORBAX Eclipse Plus C18 Rapid Resolution column, 3.5 μm (4.6 × 100 mm), 95 Å pore size; column temperature, 35 °C; injection volume, 2 μL; flow rate, 1.0 mL min^−1; gradient elution from 5–100% solvent B (0.1% TFA in MeCN) in solvent A (0.1% TFA in ultrapure water) over 9 min, then hold for 1 min at 100% B; UV detection at two wavelengths (254 and 214 nm). The total run time was 10 min, and the retention times of the model compounds CTG and DCM-OH were 4.28 and 6.16 min, respectively. The retention times of probes 13–17 were 4.41, 4.53, 4.58, 5.97, and 6.04 min, respectively. Calibration curves of free fluorophore were constructed at pH values of 1.2, 5.0, 6.5, and 7.5 over the concentration range of 10–100 µM. A concentration of 25 μM was selected to run in the assay as it gave a good instrument response at the selected wavelength. The data at each pH value was fitted by linear regression, yielding equations of the form: y = ax ± b, where y is the peak area and x is the corresponding concentration in µM. Furthermore, the correlation coefficient (R^2) was ≥0.999 in each case, confirming the linearity of the method used under the specified conditions.
# (§2) Release assays for probes 13–17 were performed in vitro using pH and temperature conditions chosen to simulate the GIT, with analysis by HPLC. We used KCl/HCl buffer (pH 1.2) and acetate buffer (pH 5.0) to simulate the pH of the stomach and the duodenum, respectively, while PBS (pH 7.5) and phosphate buffer (pH 6.5) were used to mimic the pH of the lower small intestine and the colon. The compounds were dissolved in 1:1 ethanol/buffer and incubated at 37 °C. Aliquots were taken at different time points and analysed by HPLC and LC/MS, as described in Section 2.2. […] Thus, the aforementioned compounds were incubated at pH 1.2 for 5 h to test their stability under conditions simulating the stomach. […] Then, the stability of the probes was tested in simulated duodenum conditions for 30–40 min, reflecting the reported transit time in the duodenum [26].
# [3] = parameters: method as in PMID 33979164; conditions: cited from earlier work
# [4] = parameters: method as in PMID 33979164; conditions: cited from earlier work; remark: listed apart in the source
# [5] = parameters: method as in PMID 33979164; conditions: cited from earlier work; remark: listed apart in the source
# [6] = In vitro release of Msl from Msl prodrugs by HPLC in buffers simulating the GIT; type: physicochemical; conditions: for release of Msl: colon-like conditions (pH 6.5); for Msl release / prodrug stability: 37 °C; for prodrug remained intact: simulated upper GIT conditions
# Procedure: We chose Msl as a starting point for putting our prodrug concept into practice. […] Therefore, a new methodology was developed in which prodrug 21 was incubated in 1:1 ethanol/buffer and the HPLC analysis was run with UV detection at 310 nm, as detailed in the Supplementary Materials.
# Then, the same compound was incubated at pH 7.5 and 6.5 to measure its stability under conditions mimicking the small intestine and colon, respectively. […] We believed that the formaldehyde released after cyclisation of the linker had initiated the side-reaction according to the mechanism described in detail in Supplementary Materials and supported by literature (Scheme S3).
# [7] = as above; type: physicochemical; conditions: pH 7.5, 37 °C, over 2 h, water/buffer 1:1, small intestine-like
# [8] = parameters: method as in PMID 2219958; conditions: cited from earlier work
# [9] = buffer, pH 5
# Procedure: as §1, §2
# [10] = Fluorometric assay of the stability of probes 13 and 16 at pH 7.5 and 6.5; type: physicochemical
# From the text: page 2: 1. Stability of probe 13 at pH 7.5 and 6.5 using the spectrofluorometric assay. Principal: CTG's fluorescence is reversibly quenched or shifted to another wavelength when the phenol group is conjugated to the pH-sensitive linkers. Upon cyclization of the linker and the release of the free phenol, the fluorescence will be restored (on-mode). Fluorescence can be measured to follow the release of the payload, which is the fluorophore itself. The optical properties of the free fluorophore were measured in 50% DMSO/buffer at pHs 7.5, and 6.5. Since the fluorescence- based assay depends on the difference in fluorescence properties between the free fluorophore and its conjugates, the excitation wavelength must be carefully chosen. […] Secondly, the wavelength that gave a reasonable absorbance rather than maximum absorbance should be chosen to avoid exceeding the detector limits. Finally, a long distance between the excitation and emission wavelengths is preferable to minimize the background fluorescence. Accordingly, the in vitro tests were conducted by measuring the fluorescence at 555 nm after excitation of the probes at 500 nm, as this wavelength achieved the previous requirements. […] The microplate was incubated at 37 °C, and the fluorescence (em: 555 nm, ex: 500 nm) was recorded at every time point until the full release of CTG was obtained. […]
# [11] = pH 1.2 (KCl/HCl buffer/EtOH 1:1), 5 h, 37 °C, 25 µM, stomach-like
compound,measurement,setting,value
"Cc1cc(C(=O)O)ccc1-c1c2ccc(=O)cc-2oc2cc(O)ccc12 [CTG, 4-Carboxy-2-methyl Tokyo Green]",pKa,[1],4.33
"N#CC(C#N)=C1C=C(/C=C/c2ccc(O)cc2)Oc2ccccc21 [DCM-OH, Dicyanomethylene-4H-pyran dye]",pKa,[1],7.21
"Nc1ccc(O)c(C(=O)O)c1 [Msl, Mesalamine]",pKa of aromatic amino group (–NH3+),[1],6
same,pKa of carboxylic group (–COOH),[1],3
same,pKa of phenolic group (–OH),[1],13.9
"C#CCCCNCCCCOC(=O)OCOc1ccc2c(-c3ccc(C(=O)O)cc3C)c3ccc(=O)cc-3oc2c1.Cl [Probe 15, N-(4-(((((9-(4-Carboxy-2-methylphenyl)-3-oxo-3H-xanthen-6yl)oxy)methoxy)carbonyl)oxy)butyl)pent-4-yn-1-aminium chloride]",half-life at 25 µM,"[2]; PBS, pH 7.5",2.4 ± 0.37 h
same,half-life at 25 µM,"[2]; acetate buffer, pH 5",> 0.583 h
same,CTG payload released (sustained release),"[2]; colon-like conditions (pH 6.5), over 38 h",> 90%
same,fluorophore release / stability under stomach-like conditions,"[2]; pH 1.2, 37 °C",excellent stability; also recorded: no detectable fluorophore release; also recorded: stable
same,fluorophore release / stability under duodenum-like conditions,"[2]; pH 5.0, 37 °C",excellent stability; also recorded: no detectable fluorophore release; also recorded: stable
same,half-life at 25 µM,"[2]; phosphate buffer, pH 6.5",13.2 ± 0.54 h
same,CTG payload protected from being released,"[2]; small intestine-like conditions, pH 7.5, 2 h",60%
"C#CCCCNCCCOC(=O)OCOc1ccc(/C=C/C2=CC(=C(C#N)C#N)c3ccccc3O2)cc1.Cl [Probe 17, (E)-N-(3-((((4-(2-(4-(Dicyanomethylene)-4H-chromen-2-yl)vinyl)phenoxy)methoxy)carbonyl)oxy)propyl)pent-4-yn-1-aminium chloride]",half-life at 25 µM,"[2]; PBS, pH 7.5",0.113 ± 0.012 h
same,half-life at 25 µM,"[2]; acetate buffer, pH 5",16.4 ± 1.52 h
same,fluorophore release,[2]; [11],0.5%
same,free fluorophore detected,"[2]; pH 5.0 (acetate buffer/EtOH 1:1), at 35 min, 37 °C",7%
same,time to full fluorophore release,"[2]; pH 6.5, mimicking the colon, 37 °C",170 min
same,time to achieve complete fluorophore release,"[2]; pH 7.5, small intestine-like, 37 °C",40 min
same,half-life at 25 µM,"[2]; phosphate buffer, pH 6.5",0.467 ± 0.0257 h
CNCCCOC(=O)OCOc1c(-c2ccc(Oc3ccc(OC(F)(F)F)cc3)cc2F)c(C)nc2cc(OC)c(Cl)cc12 [Prodrug 2],oral bioavailability compared with the parent drug,[3],enhanced oral bioavailability
same,aqueous solubility compared with the parent drug,[4],improved aqueous solubility
same,stability under stomach-like conditions,[5],stable
"C#CCCCNCCCCOC(=O)OCOc1ccc(N)cc1C(=O)O.Cc1ccc(S(=O)(=O)O)cc1.Cc1ccc(S(=O)(=O)O)cc1 [Prodrug 21, 3-Carboxy-4-((((4-(pent-4-yn-1-ylammonio)butoxy)carbonyl)oxy)methoxy)benzeneaminium-di(4-methylbenzenesulfonate)]",release of Msl,[6]; after 24 h,36%
same,release of Msl,[6]; after 48 h,61–68% and 61%
same,release of Msl,[6]; after 6 d,93%
same,Msl release / prodrug stability,"[6]; pH 1.2, 5 h, stomach-like",no Msl was released
same,Msl release / prodrug stability,"[6]; pH 5.0, 35 min, duodenum-like",no Msl was released
same,prodrug remained intact,[6],77–80%
same,Msl payload released,[7],20%
"C#CCCCNCCCOC(=O)OCOc1ccc(N)cc1C(=O)O.Cc1ccc(S(=O)(=O)O)cc1.Cc1ccc(S(=O)(=O)O)cc1 [Prodrug 22, 3-Carboxy-4-((((3-(pent-4-yn-1-ylammonio)propoxy)carbonyl)oxy)methoxy)benzeneaminium-di(4-methylbenzenesulfonate)]",release of Msl,[6]; after 48 h,61–68% and 68%
same,Msl release / prodrug stability,"[6]; pH 1.2, 5 h, stomach-like",fully intact
same,Msl release / prodrug stability,"[6]; pH 5.0, 35 min, duodenum-like",fully intact
same,prodrug remained intact,[6],77–80%
same,Msl payload released,[7],23.5%
CCOC(=O)OC(C)OC1=C(C(=O)Nc2ccccn2)N(C)S(=O)(=O)c2ccccc21 (centres unmarked) [ampiroxicam],t½,[8]; pH 1,≥ 50 h
same,t½ (hydrolysis),[8]; pH 6.0–8.5,≥ 8 h
(E)-N-(3-((((4-(2-(4-(dicyanomethylene)-4H-chromen-2-yl)vinyl)phenoxy)methoxy)carbonyl)oxy)propyl)pent-4-yn-1-aminium chloride [Probe 16],half-life,[9],0.343 ± 0.0035 h
same,fluorophore release,[2]; [11],3%
same,fluorophore release,"[2]; pH 5.0 (acetate buffer/EtOH 1:1), 30–40 min, 37 °C, duodenum-like",~ 66%
same,time to conversion to the free fluorophore,"[10]; at both pH 6.5 and pH 7.5, buffer/DMSO 1:1, 37 °C",≤ 3 min
same,fluorophore release in fluorometric assay,"[10]; pH 7.5 and 6.5, buffer/DMSO 1:1, 37 °C",released immediately
